pIC50: −log10 of the molar value.
How the values were obtained:
mTOR = mTOR (Homo sapiens, UniProt P42345); test: mTOR HTR-FRET Assay; assay type: biochemical
In short: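 TOR enzyme fraction preincubated 30 min at room temperature with compound, then reaction started with GST-p70S6 kinase fragment substrate (97 nM working stock) plus ATP/Mn2+ and run 2 h at room temperature in Tris pH 7.4 buffer. Stopped with EDTA; phospho-substrate detected by HTRF antibody reagent after 5 h to overnight.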

Syk = target: T1, Syk (Homo sapiens, UniProt P43405); test: Syk HTRF Assay; assay type: biochemical
T1 construct: purchased Cama Biosciences (so in the source)
Experimental: 5 μl/well DMSO is added to Column 2 Wells A-0 and 29.5 μl to well P2 of Greiner 384-well polypropylene plate. 20 μl/well DMSO is added to Columns 1 and 3-12.
25 mM compound solutions are prepared by the addition of 25 μl of 30 mM compound to Column 2 and 0.5 μl 30 mM reference control to well P2.
Serial dilution is then performed by the following steps: (i) compounds in Column 2 are mixed by pipetting 20 μl up and down 6×; (ii) 10 μl/well compounds in DMSO are transferred from one column to the next column for Columns 2-11; (iii) wells are mixed by pipetting 20 μl up and down 6×; (iv) tips washed 3×25 μl DMSO, 2×25 μl next DMSO.
The following buffers are prepared:
Dilution Buffer: 50 mM HEPES pH 7.6; 1 mM DTT; 10 mM MgCl2; 0.01% Triton X100; 0.01% BSA; 0.1 mM EDTA.
Enzyme Mix in Dilution Buffer: 8.621 ng/ml Syk (Cama Biosciences 08-176).
Start Mix in Dilution Buffer: 87.5 μM ATP; 80 nM Substrate Peptide (American Peptide Company 332722).
14.5 μl/well Enzyme Mix or Dilution Buffer (Background Controls) is added to Costar 384-well black plates.
Compound addition and mixture is performed by the following steps: (i) 0.5 μl/well DMSO/compounds in DMSO transferred from Greiner 384-well polypropylene plate to left half of assay plate containing 14.5 μl/well Enzyme Mix and Dilution Buffer; (ii) Mix by pipetting 10 μl up and down 4×; (iii) tips are washed 4×10 μl in DMSO, 2×20 μl in other DMSO; (iv) steps i-iii are repeated with transfer to right half of assay plate; (v) steps i-iv are repeated with each compound/assay plate until all plates are completed.
10 μl/well Start Mix is added and incubated at room temperature on shaker for 2 minutes (1 hour total reaction time).
Stop Solution in Dilution Buffer: 120 mM EDTA
Antibody Mix in Dilution Buffer: 4.86 μg/ml DyLight 647 Streptavidin (Pierce 21824); 1 μg/ml Lance Eu-Anti-Phosphotyrosine (PerkinElmer AD0069).
5 μl/well[…] is added and incubated at room temperature on shaker for 2 minutes.
[…] Antibody Mix is added and Incubated at room temperature on shaker for 2 minutes (4 hours to overnight total time).
Plates are read at 665 nm and 620 nm emission on Analyst GT protocol HTRF_SP_A or EnVision protocol Steve's TR-FRET.

| SMILES | pIC50 (mTOR) | pIC50 (Syk) |
| --- | --- | --- |
| NC(=O)c1nc(-c2cccnc2)nc2c1[nH]c(=O)n2[C@H]1CC[C@H](O)CC1 [Compound 50, 9-(trans-4-Hydroxycyclohexyl)-8-oxo-2-(pyridin-3-yl)-8,9-dihydro-7H-purine-6-carboxamide] | 5.30 to 7.00 |  |
| COc1ccccc1-n1c(=O)[nH]c2c(C(N)=O)nc(-c3ccc(O)cc3)nc21 [Compound 8, 2-(4-hydroxyphenyl)-9-(2-methoxyphenyl)-8-oxo-8,9-dihydro-7H-purine-6-carboxamide] | 5.00 to 5.29 | < 4.52 |
| COc1ccccc1-n1c(=O)[nH]c2c(C(N)=O)nc(-c3ccnc(O)c3)nc21 [Compound 13, 2-(2-hydroxypyridin-4-yl)-9-(2-methoxyphenyl)-8-oxo-8,9-dihydro-7H-purine-6-carboxamide] | < 4.52 | < 4.52 |

From patent publication US7968556B2, “Heteroaryl compounds, compositions thereof, and methods of treatment therewith” (Signal Pharmaceuticals, LLC, priority 2006, dated 2011)
